Experimental data taken from the supplement of paper PMC8671470.

How the values were obtained:
Details in all cases: 72 h
BV-173 [1] = experiment: cell viability (% survival relative to DMSO control, bortezomib = 0%); higher = less cytotoxic
Procedure, shortened: (§1)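 Fifteen myeloid leukaemia cell lines (10 AML, 5 CML) were seeded at a density titrated to the linear growth range. They went into 384-well plates with compounds pre-printed at 1, 10, 100, 1000 or 10000 nM in duplicate. After 72 h at 37 °C with 5% CO2, viability was read by CellTiter-Glo luminescence. Values are percent survival, with vehicle set to 100% and a 10 µM positive control to 0%, averaged over the duplicates.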

KG-1 [2] = experiment: as above
Procedure, shortened: as §1

K-562 [3] = experiment: as above
Procedure, shortened: as §1

MOLM-13 [4] = experiment: as above
Procedure, shortened: as §1

ML-2 [5] = experiment: as above
Procedure, shortened: as §1

Mono-Mac-6 [6] = experiment: as above
Procedure, shortened: as §1

KU-812 [7] = experiment: as above
Procedure, shortened: as §1

KCL-22 [8] = experiment: as above
Procedure, shortened: as §1

MV4-11 [9] = experiment: as above
Procedure, shortened: as §1

SHI-1 [10] = experiment: as above
Procedure, shortened: as §1

THP-1 [11] = experiment: as above
Procedure, shortened: as §1

NOMO-1 [12] = experiment: as above
Procedure, shortened: as §1

LAMA-84 [13] = experiment: as above
Procedure, shortened: as §1

HL-60 [14] = experiment: as above
Procedure, shortened: as §1

HEL [15] = experiment: as above
Procedure, shortened: as §1

BV-173 [16] = system: BV-173
Procedure, shortened: (§2)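 For the IC50, dose–response curves were fitted with a log-logistic model. The data came from fifteen myeloid leukaemia cell lines grown in RPMI 1640 at densities in the linear growth range and incubated in 384-well plates for 72 h at 37 °C under 5% CO2. Doses were five tenfold steps from 1 to 10,000 nM in duplicate, and luminescent ATP viability was normalised to vehicle and to a positive control at 10 µM before four-parameter fitting.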

KG-1 [17] = system: KG-1
Procedure, shortened: as §2

K-562 [18] = system: K-562
Procedure, shortened: as §2

MOLM-13 [19] = system: MOLM-13
Procedure, shortened: as §2

ML-2 [20] = system: ML-2
Procedure, shortened: as §2

Mono-Mac-6 [21] = system: Mono-Mac-6
Procedure, shortened: as §2

KU-812 [22] = system: KU-812
Procedure, shortened: as §2

KCL-22 [23] = system: KCL-22
Procedure, shortened: as §2

MV4-11 [24] = system: MV4-11
Procedure, shortened: as §2

SHI-1 [25] = system: SHI-1
Procedure, shortened: as §2

THP-1 [26] = system: THP-1
Procedure, shortened: as §2

NOMO-1 [27] = system: NOMO-1
Procedure, shortened: as §2

LAMA-84 [28] = system: LAMA-84
Procedure, shortened: as §2

HL-60 [29] = system: HL-60
Procedure, shortened: as §2

HEL [30] = system: HEL
Procedure, shortened: as §2

OC[C@H]1NC[C@H](O)[C@@H](O)[C@@H]1O [Duvoglustat]
cell viability [%]
Details | 1 nM | 10 nM | 100 nM | 1000 nM | 10000 nM
BV-173 [1] | 96.5 | 85.3 | 104 | 75.6 | 96.5
HEL [15] | 94.5 | 122 | 99.8 | 94.4 | 103
HL-60 [14] | 90.1 | 180 | 113 | 81 | 125
K-562 [3] | 90.3 | 94.7 | 100 | 88.2 | 105
KCL-22 [8] | 90.5 | 120 | 107 | 87 | 104
KG-1 [2] | 96.4 | 111 | 108 | 87.3 | 101
KU-812 [7] | 84.9 | 99.8 | 92.5 | 94.5 | 103
LAMA-84 [13] | 84.3 | 98 | 106 | 88.3 | 106
ML-2 [5] | 95.4 | 121 | 117 | 84.9 | 106
MOLM-13 [4] | 79.3 | 127 | 104 | 83.3 | 102
MV4-11 [9] | 93.3 | 108 | 92.8 | 92.6 | 113
Mono-Mac-6 [6] | 102 | 107 | 105 | 78.9 | 104
NOMO-1 [12] | 95.8 | 101 | 99.5 | 83.4 | 105
SHI-1 [10] | 103 | 121 | 109 | 88 | 108
THP-1 [11] | 96.6 | 92.3 | 109 | 84.6 | 101

Details | IC50 (cell viability) [µM]
BV-173 [16] | > 10
HEL [30] | > 10
HL-60 [29] | > 10
K-562 [18] | > 10
KCL-22 [23] | > 10
KG-1 [17] | > 10
KU-812 [22] | > 10
LAMA-84 [28] | > 10
ML-2 [20] | > 10
MOLM-13 [19] | > 10
MV4-11 [24] | > 10
Mono-Mac-6 [21] | > 10
NOMO-1 [27] | > 10
SHI-1 [25] | > 10
THP-1 [26] | > 10

C=CCN(C)CCCCCCOc1ccc(C(=O)c2ccc(Br)cc2)c(F)c1.O=C(O)/C=C/C(=O)O [Ro 48-8071 fumarate]
cell viability [%]
Details | 1 nM | 10 nM | 100 nM | 1000 nM | 10000 nM
BV-173 [1] | 90.3 | 86.2 | 66.2 | 63.3 | 29.5
HEL [15] | 112 | 102 | 102 | 109 | 86.7
HL-60 [14] | 115 | 88.4 | 84.3 | 98.8 | 24.7
K-562 [3] | 87 | 104 | 102 | 82.2 | 19.6
KCL-22 [8] | 99.6 | 98.6 | 96.3 | 87.4 | 77.5
KG-1 [2] | 110 | 101 | 78.5 | 80.7 | 52.3
KU-812 [7] | 90.2 | 92.4 | 76.2 | 80.7 | 43.3
LAMA-84 [13] | 90.6 | 100 | 81.1 | 83.8 | 47
ML-2 [5] | 106 | 98.5 | 106 | 96.4 | 68.9
MOLM-13 [4] | 132 | 113 | 88.9 | 89.1 | 62.2
MV4-11 [9] | 91.5 | 114 | 84.4 | 83.4 | 50.6
Mono-Mac-6 [6] | 92.2 | 87.6 | 92.4 | 96 | 63.8
NOMO-1 [12] | 104 | 97 | 98.1 | 105 | 92.7
SHI-1 [10] | 103 | 100 | 101 | 105 | 58.5
THP-1 [11] | 102 | 91.7 | 105 | 101 | 80.3

Details | IC50 (cell viability) [µM]
BV-173 [16] | 1.79
HEL [30] | > 10
HL-60 [29] | 5.92
K-562 [18] | 2.06
KCL-22 [23] | > 10
KG-1 [17] | 6.11
KU-812 [22] | 9.97
LAMA-84 [28] | 8.49
ML-2 [20] | > 10
MOLM-13 [19] | > 10
MV4-11 [24] | 5.95
Mono-Mac-6 [21] | > 10
NOMO-1 [27] | > 10
SHI-1 [25] | > 10
THP-1 [26] | > 10
